These results are taken from ChEMBL document CHEMBL1697781, “Assessment of the health effects of chemicals in humans: II. Construction of an adverse effects database for QSAR modeling” (Curr Drug Discov Technol, 2004).

What all share (conditions): human
The test system of data set [1] is Hepatotoxicity. The experiment in a line: FDA HLAED, lactate dehydrogenase (LDH) increase.
Data set [2] concerns Hepatotoxicity. The data set can be described thus: FDA HLAED, serum glutamic oxaloacetic transaminase (SGOT) increase.
Data set [3] deals with Hepatotoxicity. The data set can be described thus: FDA HLAED, gamma-glutamyl transferase (GGT) increase.
The test system of data set [4] is Hepatotoxicity. The experiment in a line: FDA HLAED, serum glutamic pyruvic transaminase (SGPT) increase.
The subject of data set [5] is Hepatotoxicity. The experiment in a line: FDA HLAED, alkaline phosphatase increase.
For data set [6], the system named is Hepatotoxicity. The experiment in a line: FDA HLAED, liver enzyme composite activity.
For GGT Increase - Index Value in this document: reference of the scale not given here.
For LDH Increase - Index Value in this document: reference of the scale not given here.

As to `C=C1/C(=C\C=C2/CCC[C@]3(C)[C@@H]([C@H](C)/C=C/[C@@H](O)C4CC4)CC[C@@H]23)C[C@@H](O)C[C@@H]1O` [CALCIPOTRIENE], in the data set on Hepatotoxicity [1], the “LDH Increase - Activity Score” value is “Inactive”, the “LDH Increase - Index Value” was determined as 0 and the “LDH Increase - Number of Reports” value is < 4. In addition, in the data set on Hepatotoxicity [2], the “SGOT Increase - Activity Score” value was “Inactive”, the “SGOT Increase - Index Value” came out at 0.3 and the “SGOT Increase - Number of Reports” value is on record as < 4. Besides, in the data set on Hepatotoxicity [3], the “GGT Increase - Activity Score” value is “Inactive”, the “GGT Increase - Index Value” is recorded as 0 and the “GGT Increase - Number of Reports” value was < 4. Also, in the data set with Hepatotoxicity [4], the “SGPT Increase - Activity Score” value is “Inactive”, the “SGPT Increase - Index Value” was 0 and the “SGPT Increase - Number of Reports” value is reported as < 4. In addition, in the data set on Hepatotoxicity [5], the “Alkaline Phosphatase Increase - Activity Score” value is “Inactive”, the “Alkaline Phosphatase Increase - Index Value” stood at 0 and the “Alkaline Phosphatase Increase - Number of Reports” value is reported as < 4. In addition, in the data set with Hepatotoxicity [6], the “Composite Activity - Active” value turned out to be 0, the “Composite Activity - Marginal” value was 0 and the “Composite Activity - Score” value is given as “Inactive”.

Consider `CC(C)c1c(C(=O)Nc2ccccc2)c(-c2ccccc2)c(-c2ccc(F)cc2)n1CC[C@@H](O)C[C@@H](O)CC(=O)O` [ATORVASTATIN], for which, in the data set with Hepatotoxicity [1], the “LDH Increase - Activity Score” value is “Inactive”, the “LDH Increase - Index Value” came out at 2.5 and the “LDH Increase - Number of Reports” value was “>= 4”. Moreover, in the data set with Hepatotoxicity [2], the “SGOT Increase - Activity Score” value was “Active”, the “SGOT Increase - Index Value” was determined as 6.5 and the “SGOT Increase - Number of Reports” value is on record as “>= 4”. Moreover, in the data set on Hepatotoxicity [3], the “GGT Increase - Activity Score” value is “Active”, the “GGT Increase - Index Value” is given as 6.2 and the “GGT Increase - Number of Reports” value is listed as “>= 4”. Further, in the data set with Hepatotoxicity [4], the “SGPT Increase - Activity Score” value is on record as “Active”, the “SGPT Increase - Index Value” is recorded as 7.3 and the “SGPT Increase - Number of Reports” value was “>= 4”. For the same molecule, in the data set with Hepatotoxicity [5], the “Alkaline Phosphatase Increase - Activity Score” value was “Inactive”, the “Alkaline Phosphatase Increase - Index Value” is 1.7 and the “Alkaline Phosphatase Increase - Number of Reports” value is on record as “>= 4”. In the data set with Hepatotoxicity [6] (Liver), the “Composite Activity - Active” value was found to be 3, the “Composite Activity - Marginal” value is 0 and the “Composite Activity - Score” value is “Active”.

Take `O=S(=O)([O-])CCS.[Na+]` [MESNA]: in the data set with Hepatotoxicity [1], the “LDH Increase - Activity Score” value is recorded as “Inactive”, the “LDH Increase - Index Value” was 5 and the “LDH Increase - Number of Reports” value is on record as < 4. In the data set on Hepatotoxicity [2], the “SGOT Increase - Activity Score” value was “Inactive”, the “SGOT Increase - Index Value” is 5 and the “SGOT Increase - Number of Reports” value is < 4. In the data set on Hepatotoxicity [3], the “GGT Increase - Activity Score” value is reported as “Inactive”, the “GGT Increase - Index Value” is recorded as 0 and the “GGT Increase - Number of Reports” value is recorded as < 4. In the data set on Hepatotoxicity [4], the “SGPT Increase - Activity Score” value is “Inactive”, the “SGPT Increase - Index Value” turned out to be 0 and the “SGPT Increase - Number of Reports” value was < 4. Besides, in the data set with Hepatotoxicity [5], the “Alkaline Phosphatase Increase - Activity Score” value was “Inactive”, the “Alkaline Phosphatase Increase - Index Value” is 0 and the “Alkaline Phosphatase Increase - Number of Reports” value is given as < 4. In addition, in the data set on Hepatotoxicity [6], the “Composite Activity - Active” value came to 0, the “Composite Activity - Marginal” value is recorded as 0 and the “Composite Activity - Score” value is “Inactive”.

As for `CCC(=O)[C@@]1(C)[C@H](C)C[C@H]2[C@@H]3CCC4=CC(=O)C=C[C@]4(C)[C@H]3[C@@H](O)C[C@@]21C` [RIMEXOLONE], in the data set with Hepatotoxicity [1], the “LDH Increase - Activity Score” value is recorded as “Inactive”, the “LDH Increase - Index Value” is 0 and the “LDH Increase - Number of Reports” value is given as < 4. In the data set with Hepatotoxicity [2], the “SGOT Increase - Activity Score” value was “Inactive”, the “SGOT Increase - Index Value” came to 0 and the “SGOT Increase - Number of Reports” value is < 4. Also, in the data set on Hepatotoxicity [3], the “GGT Increase - Activity Score” value is given as “Inactive”, the “GGT Increase - Index Value” worked out at 0 and the “GGT Increase - Number of Reports” value was < 4. For the same molecule, in the data set with Hepatotoxicity [4], the “SGPT Increase - Activity Score” value is “Inactive”, the “SGPT Increase - Index Value” is reported as 0 and the “SGPT Increase - Number of Reports” value is on record as < 4. Also, in the data set with Hepatotoxicity [5], the “Alkaline Phosphatase Increase - Activity Score” value is given as “Inactive”, the “Alkaline Phosphatase Increase - Index Value” is listed as 0 and the “Alkaline Phosphatase Increase - Number of Reports” value is < 4. In addition, in the data set on Hepatotoxicity [6], the “Composite Activity - Active” value worked out at 0, the “Composite Activity - Marginal” value is reported as 0 and the “Composite Activity - Score” value is listed as “Inactive”.

Take `Nc1ccc(O)c(C(=O)O)c1` [MESALAMINE]: in the data set on Hepatotoxicity [1], the “LDH Increase - Activity Score” value is listed as “Inactive”, the “LDH Increase - Index Value” turned out to be 1.1 and the “LDH Increase - Number of Reports” value is listed as “>= 4”. For the same molecule, in the data set on Hepatotoxicity [2], the “SGOT Increase - Activity Score” value is reported as “Inactive”, the “SGOT Increase - Index Value” worked out at 2.2 and the “SGOT Increase - Number of Reports” value is “>= 4”. Also, in the data set on Hepatotoxicity [3], the “GGT Increase - Activity Score” value was “Inactive”, the “GGT Increase - Index Value” came to 1.5 and the “GGT Increase - Number of Reports” value was “>= 4”. In the data set with Hepatotoxicity [4], the “SGPT Increase - Activity Score” value was “Inactive”, the “SGPT Increase - Index Value” came out at 1.8 and the “SGPT Increase - Number of Reports” value is recorded as “>= 4”. In the data set with Hepatotoxicity [5], the “Alkaline Phosphatase Increase - Activity Score” value is given as “Inactive”, the “Alkaline Phosphatase Increase - Index Value” was found to be 1.3 and the “Alkaline Phosphatase Increase - Number of Reports” value is given as “>= 4”. In the data set on Hepatotoxicity [6], the “Composite Activity - Active” value came to 0, the “Composite Activity - Marginal” value is 0 and the “Composite Activity - Score” value is “Inactive”.

As to `Oc1ccc2c3c1O[C@H]1[C@@H](O)CC[C@@]4(O)[C@@H](C2)N(CC2CCC2)CC[C@]314` [NALBUPHINE], in the data set with Hepatotoxicity [1], the “LDH Increase - Activity Score” value was “Inactive”, the “LDH Increase - Index Value” stood at 0 and the “LDH Increase - Number of Reports” value is < 4. Moreover, in the data set with Hepatotoxicity [2], the “SGOT Increase - Activity Score” value is listed as “Inactive”, the “SGOT Increase - Index Value” was 0 and the “SGOT Increase - Number of Reports” value was < 4. For the same molecule, in the data set with Hepatotoxicity [3], the “GGT Increase - Activity Score” value is recorded as “Inactive”, the “GGT Increase - Index Value” was 0 and the “GGT Increase - Number of Reports” value is < 4. In the data set with Hepatotoxicity [4], the “SGPT Increase - Activity Score” value is reported as “Inactive”, the “SGPT Increase - Index Value” was determined as 0 and the “SGPT Increase - Number of Reports” value is given as < 4. Besides, in the data set with Hepatotoxicity [5], the “Alkaline Phosphatase Increase - Activity Score” value is reported as “Inactive”, the “Alkaline Phosphatase Increase - Index Value” worked out at 0 and the “Alkaline Phosphatase Increase - Number of Reports” value is on record as < 4. Further, in the data set with Hepatotoxicity [6], the “Composite Activity - Active” value stood at 0, the “Composite Activity - Marginal” value is given as 0 and the “Composite Activity - Score” value is on record as “Inactive”.

`O=c1[nH]c(=O)n([C@H]2C[C@H](O)[C@@H](CO)O2)cc1C(F)(F)F` [TRIFLURIDINE]: in the data set with Hepatotoxicity [1], the “LDH Increase - Activity Score” value is given as “Inactive”, the “LDH Increase - Index Value” was determined as 0 and the “LDH Increase - Number of Reports” value is < 4. In the data set with Hepatotoxicity [2], the “SGOT Increase - Activity Score” value is “Inactive”, the “SGOT Increase - Index Value” amounted to 0 and the “SGOT Increase - Number of Reports” value is on record as < 4. Moreover, in the data set with Hepatotoxicity [3], the “GGT Increase - Activity Score” value is “Inactive”, the “GGT Increase - Index Value” was determined as 0 and the “GGT Increase - Number of Reports” value is listed as < 4. Further, in the data set on Hepatotoxicity [4], the “SGPT Increase - Activity Score” value is on record as “Inactive”, the “SGPT Increase - Index Value” is reported as 0 and the “SGPT Increase - Number of Reports” value is given as < 4. Moreover, in the data set with Hepatotoxicity [5], the “Alkaline Phosphatase Increase - Activity Score” value is “Inactive”, the “Alkaline Phosphatase Increase - Index Value” is given as 0 and the “Alkaline Phosphatase Increase - Number of Reports” value is recorded as < 4. In the data set on Hepatotoxicity [6], the “Composite Activity - Active” value stood at 0, the “Composite Activity - Marginal” value is 0 and the “Composite Activity - Score” value is “Inactive”.

As to `CCC(=O)OCC(=O)[C@@]1(OC(=O)CC)[C@H](C)C[C@H]2[C@H]3[C@H]([C@@H](O)C[C@@]21C)[C@@]1(C)C=CC(=O)C=C1C[C@H]3Cl` [ALCLOMETASONE DIPROPIONATE], in the data set with Hepatotoxicity [1], the “LDH Increase - Activity Score” value is on record as “Inactive”, the “LDH Increase - Index Value” was 0 and the “LDH Increase - Number of Reports” value is < 4. In the data set on Hepatotoxicity [2], the “SGOT Increase - Activity Score” value is reported as “Inactive”, the “SGOT Increase - Index Value” is recorded as 0 and the “SGOT Increase - Number of Reports” value is < 4. In addition, in the data set with Hepatotoxicity [3], the “GGT Increase - Activity Score” value is “Inactive”, the “GGT Increase - Index Value” is recorded as 0 and the “GGT Increase - Number of Reports” value was < 4. In addition, in the data set with Hepatotoxicity [4], the “SGPT Increase - Activity Score” value was “Inactive”, the “SGPT Increase - Index Value” is 0 and the “SGPT Increase - Number of Reports” value is < 4. Besides, in the data set with Hepatotoxicity [5], the “Alkaline Phosphatase Increase - Activity Score” value was “Inactive”, the “Alkaline Phosphatase Increase - Index Value” was found to be 0 and the “Alkaline Phosphatase Increase - Number of Reports” value is given as < 4. In the data set with Hepatotoxicity [6], the “Composite Activity - Active” value amounted to 0, the “Composite Activity - Marginal” value came out at 0 and the “Composite Activity - Score” value is recorded as “Inactive”.

As to `NNC(=O)c1ccncc1` [ISONIAZID], in the data set on Hepatotoxicity [1], the “LDH Increase - Activity Score” value was “Active”, the “LDH Increase - Index Value” is 10 and the “LDH Increase - Number of Reports” value was “>= 4”. Further, in the data set on Hepatotoxicity [2], the “SGOT Increase - Activity Score” value is “Active”, the “SGOT Increase - Index Value” was 38.7 and the “SGOT Increase - Number of Reports” value is “>= 4”. Further, in the data set on Hepatotoxicity [3], the “GGT Increase - Activity Score” value is given as “Active”, the “GGT Increase - Index Value” amounted to 8 and the “GGT Increase - Number of Reports” value is on record as “>= 4”. Further, in the data set with Hepatotoxicity [4], the “SGPT Increase - Activity Score” value is reported as “Active”, the “SGPT Increase - Index Value” is reported as 34.7 and the “SGPT Increase - Number of Reports” value was “>= 4”. Also, in the data set with Hepatotoxicity [5], the “Alkaline Phosphatase Increase - Activity Score” value is “Active”, the “Alkaline Phosphatase Increase - Index Value” was determined as 12.7 and the “Alkaline Phosphatase Increase - Number of Reports” value is “>= 4”. In the data set on Hepatotoxicity [6], the “Composite Activity - Active” value was 5, the “Composite Activity - Marginal” value stood at 0 and the “Composite Activity - Score” value is listed as “Active”.
